Columns and labels:
human PAI-1 = human PAI-1 (Homo sapiens, UniProt P05121); assay: Assay for determining IC50 of inhibition of PAI-1 (active PAI-1 bound to tPA-coated plate, antibody detection); type: binding; conditions: human PAI-1 50 ng/ml, pH 7.5, tPA-coated plate
Method: Assay for Determining IC50 of Inhibition of PAI-1
This assay was based upon the non-SDS dissociable interaction between tPA and active PAI-1. Assay plates were initially coated with human tPA (10 μg/ml). Test compounds were dissolved in DMSO at 10 mM, then diluted with physiologic buffer (pH 7.5) to a final concentration of 1–50 μM. The test compounds were incubated with human PAI-1 (50 ng/ml) for 15 minutes at room temperature. The tPA-coated plate was washed with a solution of 0.05% Tween 20 and 0.1% BSA, then the plate is blocked with a solution of 3% BSA. An aliquot of the test compound/PAI-1 solution was then added to the tPA-coated plate, incubated at room temperature for 1 hour, and washed. Active PAI-1 bound to the plate was assessed by adding an aliquot of a 1:1000 dilution of the 33B8 monoclonal antibody against human PAI-1, and incubating the plate at room temperature for 1 hour (Molecular Innovations, Royal Oak, Mich.). […] The plate was incubated 45 minutes at room temperature, and color development is determined at OD405nm. The quantitation of active PAI-1 bound to tPA at varying concentrations of the test compound was used to determine the IC50. Results were analyzed using a logarithmic best-fit equation. The assay sensitivity is 5 ng/ml of human PAI-1 as determined from a standard curve ranging from 0–100 ng/ml.

[1] = target: T1, recombinant human plasminogen activator inhibitor-1 (Homo sapiens, UniProt P05121); assay: Primary screen for the PAI-1 inhibition (residual tPA activity, chromogenic substrate Spectrozyme-tPA); type: biochemical; conditions: 25 uM test compound; 140 nM PAI-1, 70 nM tPA, pH 6.6
T1 construct: purchased Molecular Innovations, Royal Oak, Mich
Method: Primary Screen for the PAI-1 Inhibition The ability of the compounds of this invention to inhibit plasminogen activator inhibitor-1 was established by the following experimental procedures: Test compounds were dissolved in DMSO at a final concentration of 10 mM, then diluted 100× in physiologic buffer. The inhibitory assay was initiated by the addition of the test compound (1–100 μM final concentration, maximum DMSO concentration of 0.2%) in a pH 6.6 buffer containing 140 nM recombinant human plasminogen activator inhibitor-1 (Molecular Innovations, Royal Oak, Mich.). Following a 1 hour incubation at room temperature, 70 nM of recombinant human tissue plasminogen activator (tPA) was added, and the combination of the test compound, PAI-1 and tPA was incubated for an additional 30 minutes. Following the second incubation, Spectrozyme-tPA (American Diagnostica, Greenwich, Conn.), a chromogenic substrate for tPA, was added and absorbance was read at 405 nm at 0 and 60 minutes. Relative PAI-1 inhibition was equal to the residual tPA activity in the presence of the test compounds and PAI-1. Control treatments included the complete inhibition of tPA by PAI-1 at the molar ratio employed (2:1), and the absence of any effect of the test compound on tPA alone.

human PAI-1, sequence (P05121 24-402): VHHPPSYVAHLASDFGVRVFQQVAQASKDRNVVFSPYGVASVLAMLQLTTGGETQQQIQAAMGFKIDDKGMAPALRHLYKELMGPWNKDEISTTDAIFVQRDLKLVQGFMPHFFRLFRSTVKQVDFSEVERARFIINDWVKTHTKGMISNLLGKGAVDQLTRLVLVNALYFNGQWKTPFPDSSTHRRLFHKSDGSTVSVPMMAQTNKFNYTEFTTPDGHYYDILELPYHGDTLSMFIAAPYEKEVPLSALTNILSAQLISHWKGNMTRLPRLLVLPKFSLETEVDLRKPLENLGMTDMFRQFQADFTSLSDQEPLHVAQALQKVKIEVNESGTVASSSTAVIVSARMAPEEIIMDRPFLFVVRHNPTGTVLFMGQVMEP
T1 sequence (P05121 24-402): as above

IC50 (human PAI-1) | melting point | SMILES | inhibition at 25 µM [1]
29 µM | 120 to 121 °C | Cc1cccc(-c2ccc3c(c2)c(C(=O)C(=O)NCC(=O)O)cn3Cc2ccc(C(C)(C)C)cc2)c1 [Example 1, {[[1-(4-tert-butylbenzyl)-5-(3-methylphenyl)-1H-indol-3-yl](oxo)acetyl]amino}acetic acid] | –
28 µM | 211 to 212 °C (dec.) | O=C(O)CNC(=O)C(=O)c1cn(Cc2ccccc2)c2ccc(-c3ccc(OC(F)(F)F)cc3)cc12 [Example 2, 2-[(2-{1-Benzyl-5-[4-(trifluoromethoxy)phenyl]-1H-indol-3-yl}-2-oxoacetyl)amino]acetic acid] | –

SMILES | IC50 (human PAI-1) | melting point | inhibition at 25 µM [1]
CN(CC(=O)O)C(=O)C(=O)c1cn(Cc2ccccc2)c2ccc(-c3cccc(OC(F)(F)F)c3)cc12 [Example 3, 2-[(2-{1-Benzyl-5-[3-(trifluoromethoxy)phenyl]-1H-indol-3-yl}-2-oxoacetyl)(methyl)amino]acetic acid] | – | 178 to 179 °C | 24%

— patent US7056943B2, “Substituted indole oxo-acetyl amino acetic acid derivatives as inhibitors of plasminogen activator inhibitor-1 (PAI-1)” (Wyeth, priority 2002, dated 2006)
